Results published in patent US20230000876A1, “TREATING CANCERS WITH A CYCLIN-DEPENDENT KINASE INHIBITOR” (Nuvation Bio Inc., priority 2021, published 2023).

Assays:
[1] = test system: 7 melanoma cell lines (A375, COLO 829, SK-MEL-3, SK-MEL-5, SK-MEL-24, SK-MEL-28, SK-MEL-31); assay: Anti-proliferation assay, 7 melanoma cell lines taken together; assay type: cell-based
Protocol: (§1) Inhibition rate (IR) of the tested compounds was determined by the following formula: IR (%)=(1−(RLU compound−RLU day0)/(RLU control−RLU day0))*100%. The inhibitions of different dose of compound were calculated in Excel file, and then were used to plot inhibition curves and evaluate related parameters, such as Min (%), Max (%) and GI50. The data were interpreted by GraphPad Prism.
The anti-proliferation effect of the compound of formula (I) in 7 CNS melanoma cell lines was evaluated.

U-118MG xenograft tumors = assay: U-118MG glioma subcutaneous xenograft model; assay type: in vivo, female CB17 SCID mice; conditions: for T/C / TGI / Tumor Size: PG-D27
Protocol: The tumor cells were routinely subcultured twice weekly. The cells growing in an exponential growth phase were harvested and counted for tumor inoculation.
The treatments was started on day 7 after tumor inoculation when the average tumor volume reached 150 mm^3. 60 mice were selected and assigned into 6 groups. The testing articles were administrated to the mice according to Table 1.
Tumor size was measured twice weekly in two dimensions using a caliper, and the volume was expressed in mm^3 using the formula: V=0.5 a×b^2 where a and b are the long and short diameters of the tumor, respectively. The tumor sizes are then used for the calculation of T/C and TGI values.
The T/C value (in percent) is an indication of antitumor effectiveness; T and C are the mean volume of the treated and control groups, respectively, on a given day.
TGI was calculated for each group using the formula: TGI (%)=[1−(Ti−T0)/(Vi−V0)]×100; Ti is the average tumor volume of a treatment group on PG-D28 T0 is the average tumor volume of the treatment group on the day of treatment start, Vi is the average tumor volume of the vehicle control group on the same day with Ti, and V0 is the average tumor volume of the vehicle group on the day of treatment start.
All Groups were taken down on PG-D28, tumor, plasma and brain samples were collected.
For statistical analysis for difference among groups 2-6 and group 1, a one-way ANOVA was performed. All the analysis were conducted using GraphPad Prism software. p<0.05 was considered to be statistically significant.

H1975-luc = assay: CellTiter-Glo anti-proliferation assay, H1975-luc; assay type: cell-based
Protocol: The anti-proliferation effect of 2 compounds (the compound of formula (I) and temozolomide) in 7 CNS metastasis cell lines (MOLT-4-luc, Nalm-6-luc, NCI-H460-luc, ACHN-luc2, PC-9-luc, H1975-luc, and KM12-luc) was evaluated.
The plating of cells and compound treatments are shown below in the plate map (Table 12). One plate was needed for the test of 2 compounds (the compound of formula (I) and temozolomide) in one cell line. The compound of formula (I) was tested from 10 μM, 3-fold serial dilution. Temozolomide was tested from 100 μM, 3-fold serial dilution.
All the cell lines were maintained in culture conditions at 37° C. in an atmosphere with 5% CO2 in air. The tumor cells were routinely subcultured. The cells growing in an exponential growth phase were harvested and counted for plating.
Cells were counted by haemocytometer with Trypan blue staining. Next, 135 μL of cell suspension were plated into the assay plates according to the plate map and 135 μL of assay medium into the blank wells. The plates were incubated at 37° C., 5% CO2, 95% air and 100% relative humidity overnight.
4.4.4 Compound Plate (10×) Preparation and Compound Treatment • 10× concentrate compound plate preparation: Add 198 μL of assay medium into each well of the V-bottom plate; then transfer 2 μL of the stock compound solution of each concentration from the stock plate. Add 2 μL of DMSO into the Blank and Control wells. Pipette up and down to mix well. This V-plate is designated as the 10× concentrate compound plate. • For day 0 plate, add 15 μL of the DMSO-medium into the Control wells. The final DMSO concentration was 0.1%. Then directly proceed to cell viability assay. • For assay plate, add 15 μL of the compound-medium of each well from the 10× concentrate compound plate into the cells in 96-well assay plate according to the plate map. Add 15 μL of the DMSO-medium into the Blank and Control wells. The final DMSO concentration was 0.1%. • Return the assay plate into incubator and incubate for 6 days.
The procedures were performed according to the Promega CellTiter-Glo Luminescent Cell Viability Assay Kit manual (Promega-G7573). • The CellTiter-Glo buffer was thawed and equilibrated to room temperature prior to use. • CellTiter-Glo Substrate was equilibrated to room temperature prior to use. • The entire liquid volume of CellTiter-Glo Buffer was transferred into the amber bottle containing CellTiter-Glo Substrate to reconstitute the lyophilized enzyme/substrate mixture. This forms the CellTiter-Glo Reagent. • The contents were mixed by gently vortexing to obtain a homogeneous solution. • The plate was equilibrated and its contents to room temperature for approximately 30 minutes. 75 μL (equal to the half volume of culture medium present in each well) CellTiter-Glo • Reagent was added in each well. Plates were covered with aluminum foil to protect from light. • The contents were mixed for 2 minutes on an orbital shaker to induce cell lysis. • The plate was incubated at room temperature for 20 minutes to stabilize luminescent signal. • Record luminescence on the 2104 EnVision plate reader.
as §1

[2] = Group 2: Compound (I) 10 mg/kg PO, QD
[3] = Group 3: Compound (I) 30 mg/kg PO, QD
[4] = Group 4: Compound (I) 60 mg/kg PO, QD
[5] = Group 5: Compound (I) 60 mg/kg PO, QOD
[6] = inhibition rate, 6 days, Compound (I) from 10 μM, temozolomide from 100 μM, 3-fold, 9 points

CC(C)N1CCOc2c(F)cc(-c3nc(Nc4ccc(C5CCN(C)CC5)cn4)ncc3F)cc21 [Compound (I), 5-fluoro-4-(8-fluoro-4-isopropyl-3,4-dihydro-2H-benzo[b][1,4]oxazin-6-yl)-N-(5-(1-methylpiperidin-4-yl)pyridin-2-yl)pyrimidin-2-amine]
Inhibitory effect in cell viability assay [1]: significant inhibitory effects | GI50 ([1]; read-out: Absolute GI50 values, range over 7 cell lines): 156 to 1240 nM | Tumor volume (mean ± SEM) (U-118MG xenograft tumors; 10 mg/kg PO QD, day 0): 154 ± 12 mm^3 | Tumor volume (mean ± SEM) (U-118MG xenograft tumors; 10 mg/kg PO QD, day 3): 238 ± 16 mm^3 | Tumor volume (mean ± SEM) (U-118MG xenograft tumors; 10 mg/kg PO QD, day 7): 277 ± 20 mm^3 | Tumor volume (mean ± SEM) (U-118MG xenograft tumors; 10 mg/kg PO QD, day 10): 291 ± 28 mm^3 | Tumor volume (mean ± SEM) (U-118MG xenograft tumors; 10 mg/kg PO QD, day 14): 275 ± 28 mm^3 | Tumor volume (mean ± SEM) (U-118MG xenograft tumors; 10 mg/kg PO QD, day 17): 281 ± 34 mm^3 | Tumor volume (mean ± SEM) (U-118MG xenograft tumors; 10 mg/kg PO QD, day 21): 269 ± 43 mm^3 | Tumor volume (mean ± SEM) (U-118MG xenograft tumors; 10 mg/kg PO QD, day 24): 270 ± 40 mm^3 | Tumor volume (mean ± SEM) (U-118MG xenograft tumors; 10 mg/kg PO QD, day 28): 273 ± 39 mm^3 | Tumor volume (mean ± SEM) (U-118MG xenograft tumors; 30 mg/kg PO QD, day 0): 155 ± 11 mm^3 | Tumor volume (mean ± SEM) (U-118MG xenograft tumors; 30 mg/kg PO QD, day 3): 237 ± 22 mm^3 | Tumor volume (mean ± SEM) (U-118MG xenograft tumors; 30 mg/kg PO QD, day 7): 273 ± 26 mm^3 | Tumor volume (mean ± SEM) (U-118MG xenograft tumors; 30 mg/kg PO QD, day 10): 241 ± 25 mm^3 | Tumor volume (mean ± SEM) (U-118MG xenograft tumors; 30 mg/kg PO QD, day 14): 230 ± 19 mm^3 | Tumor volume (mean ± SEM) (U-118MG xenograft tumors; 30 mg/kg PO QD, day 17): 214 ± 16 mm^3 | Tumor volume (mean ± SEM) (U-118MG xenograft tumors; 30 mg/kg PO QD, day 21): 193 ± 17 mm^3 | Tumor volume (mean ± SEM) (U-118MG xenograft tumors; 30 mg/kg PO QD, day 24): 174 ± 19 mm^3 | Tumor volume (mean ± SEM) (U-118MG xenograft tumors; 30 mg/kg PO QD, day 28): 172 ± 18 mm^3 | Tumor volume (mean ± SEM) (U-118MG xenograft tumors; 60 mg/kg PO QD, day 0): 156 ± 12 mm^3 | Tumor volume (mean ± SEM) (U-118MG xenograft tumors; 60 mg/kg PO QD, day 3): 220 ± 17 mm^3 | Tumor volume (mean ± SEM) (U-118MG xenograft tumors; 60 mg/kg PO QD, day 7): 264 ± 14 mm^3 | Tumor volume (mean ± SEM) (U-118MG xenograft tumors; 60 mg/kg PO QD, day 10): 227 ± 10 mm^3 | Tumor volume (mean ± SEM) (U-118MG xenograft tumors; 60 mg/kg PO QD, day 14): 202 ± 10 mm^3 | Tumor volume (mean ± SEM) (U-118MG xenograft tumors; 60 mg/kg PO QD, day 17): 174 ± 12 mm^3 | Tumor volume (mean ± SEM) (U-118MG xenograft tumors; 60 mg/kg PO QD, day 21): 160 ± 10 mm^3 | Tumor volume (mean ± SEM) (U-118MG xenograft tumors; 60 mg/kg PO QD, day 24): 156 ± 8 mm^3 | Tumor volume (mean ± SEM) (U-118MG xenograft tumors; 60 mg/kg PO QD, day 28): 156 ± 8 mm^3 | Tumor volume (mean ± SEM) (U-118MG xenograft tumors; 60 mg/kg PO QOD, day 0): 154 ± 11 mm^3 | Tumor volume (mean ± SEM) (U-118MG xenograft tumors; 60 mg/kg PO QOD, day 3): 233 ± 20 mm^3 | Tumor volume (mean ± SEM) (U-118MG xenograft tumors; 60 mg/kg PO QOD, day 7): 304 ± 27 mm^3 | Tumor volume (mean ± SEM) (U-118MG xenograft tumors; 60 mg/kg PO QOD, day 10): 273 ± 28 mm^3 | Tumor volume (mean ± SEM) (U-118MG xenograft tumors; 60 mg/kg PO QOD, day 14): 234 ± 22 mm^3 | Tumor volume (mean ± SEM) (U-118MG xenograft tumors; 60 mg/kg PO QOD, day 17): 215 ± 22 mm^3 | Tumor volume (mean ± SEM) (U-118MG xenograft tumors; 60 mg/kg PO QOD, day 21): 193 ± 20 mm^3 | Tumor volume (mean ± SEM) (U-118MG xenograft tumors; 60 mg/kg PO QOD, day 24): 183 ± 21 mm^3 | Tumor volume (mean ± SEM) (U-118MG xenograft tumors; 60 mg/kg PO QOD, day 28): 177 ± 22 mm^3 | T/C (U-118MG xenograft tumors; [2]): 43.20% | TGI (U-118MG xenograft tumors; [2]): 75.08% | Tumor Size (U-118MG xenograft tumors; [2]): 273 ± 39 mm^3 | T/C (U-118MG xenograft tumors; [3]): 27.32% | Tumor Size (U-118MG xenograft tumors; [3]): 172 ± 18 mm^3 | T/C (U-118MG xenograft tumors; [4]): 24.64% | TGI (U-118MG xenograft tumors; [4]): 100.03% | Tumor Size (U-118MG xenograft tumors; [4]): 156 ± 8 mm^3 | T/C (U-118MG xenograft tumors; [5]): 28.09% | TGI (U-118MG xenograft tumors; [5]): 95.14% | Tumor Size (U-118MG xenograft tumors; [5]): 177 ± 22 mm^3 | Antitumor activity relative to the control group (U-118MG xenograft tumors; mouse, in vivo): dose-dependent and statistically significant antitumor activity | Effect of 30 mg/kg QD compared with 60 mg/kg QOD (U-118MG xenograft tumors; mouse, in vivo): similar | GI50 (H1975-luc; 144 h, 6 days incubation, read-out: Absolute GI50): 226 nM | Max (%) (H1975-luc; [6]): 105.8% | Min (%) (H1975-luc; [6]): −2.3%
